“And” between values parts separate entries of the source, which are not always exact repeats. Equal entries are not always repeated. Where two headings read alike, the source gives them in different places.
Assays:
PIN8 = molecular target: T1, PIN8 (Arabidopsis thaliana, UniProt Q9LFP6); test: SSM electrophysiology, KD by inhibition of the NPA binding current
T1 construct: made in house
T1 sequence (Q9LFP6 1-367): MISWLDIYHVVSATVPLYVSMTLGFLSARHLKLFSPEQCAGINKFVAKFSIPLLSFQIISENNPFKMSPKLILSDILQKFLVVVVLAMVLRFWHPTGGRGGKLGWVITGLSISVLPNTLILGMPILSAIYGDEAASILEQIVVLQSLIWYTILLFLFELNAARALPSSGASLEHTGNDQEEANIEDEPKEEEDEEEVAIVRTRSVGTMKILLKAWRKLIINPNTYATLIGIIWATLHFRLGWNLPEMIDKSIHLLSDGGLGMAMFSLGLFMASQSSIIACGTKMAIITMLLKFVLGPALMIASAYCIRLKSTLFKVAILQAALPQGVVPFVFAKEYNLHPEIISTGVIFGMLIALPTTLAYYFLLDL
Protocol: (§1) SSM, using a SURFE2R N1 from Nanion Technologies, was conducted as described. In brief, soy polar lipid mix (38% phosphatidyl choline, 30% phosphatidyl ethanolamine, 18% phosphatidyl inositol, 7% phosphatidic acid and 7% other soy lipids) and 1-palmitoyl-2-oleoyl-sn-glycero-3-phosphocholin were purchased from Avanti. Liposomes were prepared in Ringer solution without Ca^2+ (115 mM NaCl, 2.5 mM KCl, 1 mM NaHCO3, 10 mM HEPES pH7.4, 1 mM MgCl2) and homogenized using a Lipsofast (Avestin) with a […]. Triton X-100 was added to the liposomes to a final concentration of 1% (v/v). Protein was added to liposomes to a calculated lipid-to-protein ratio (LPR) of 10 unless stated otherwise. The detergent was removed using 400 mg ml^−1 Bio Beads (BioRad) overnight at 4 °C in a rotary shaker. Proteoliposomes were frozen in liquid nitrogen and kept at −80 °C until use. Proteoliposomes were diluted 1:5 in Ringer solution without Ca^2+, sonicated five times and then applied to the sensors by centrifugation (30 min, 3,000 g, 4 °C). Non-activating buffer was Ringer solution without Ca^2+ as described unless specified otherwise, and activating buffer contained the substrate of interest. In most instances we used a single-solution exchange experiment. In this case proteoliposomes, immobilized on the supported membrane, are kept in non-activating buffer as specified. At the beginning of the experiment the non-activating buffer is replaced with fresh identical non-activating buffer, and after 1 s, activating buffer (same buffer containing substrate) is added. After another second, the buffer is replaced with non-activating buffer again. Current response is recorded throughout the entire 3 s. For competition or inhibition, the respective compound was present in non-activating and activating solutions. Each experiment was performed on at least two individual sensors. On each sensor each measurement consists of three technical replicates where the mean is calculated. KD values were determined as described previously. Briefly, the binding current induced by 100 µM NPA was recorded in the presence of different concentrations of the substrate under investigation ranging between 0 µM and 1,000 µM present in the activating solution and the non-activating solution (Extended Data Fig. 5b). […] The maximum peak current was then plotted as a function of the concentration of the substrate under investigation and plotted against the degree of inhibition and fitted with a one-site binding model using GraphPad Prism V10.4.1 The half maximal concentration corresponds to the KD of the substrate under investigation.

[1] = molecular target: T2, wild-type PIN8 proteoliposomes (Arabidopsis thaliana, UniProt Q9LFP6); test: SSM electrophysiology, peak width (FWHM) of current response at LPR10 and LPR50; assay type: biochemical; conditions: for Rel. FWHM (% of LPR10): replicates
T2 construct: made in house
T2 sequence (Q9LFP6 1-367): T1 sequence (Q9LFP6 1-367)
Protocol: as §1

PIN8 N223A = molecular target: T3, PIN8 N223A (Arabidopsis thaliana, UniProt Q9LFP6, N223A); assay type: biochemical; conditions: PIN8 N223A, Michaelis–Menten fit
T3 construct: made in house
Protocol: as §1
The protocol for expression and purification of AtPIN8 protein (Uniprot: Q9LFP6) in lauryl maltose neopentyl glycol was described previously. All point mutants were generated using Q5 Site-Directed mutagenesis kit (New England Biolabs). The C-flat Holey Carbon grids (CF-1.2/1.3, Cu-300 mesh) were glow-discharged for 45 s at 15 mA in a GloQube Plus (Quorum). […] After 1 h of incubation on ice, the sample was centrifuged at 16,000 g for 15 min before blotting to remove precipitation. A drop of 4 µl of each sample was applied to the glow-discharged grids, blotted with a Vitrobot Mark IV (ThermoFisher Scientific) using the following settings (temperature 4 °C, 100% humidity, blot time of 4 s, blot force −1) and vitrified in liquid ethane.

A. thaliana PIN8 = molecular target: T4, A. thaliana PIN8 (Arabidopsis thaliana, UniProt Q9LFP6); test: SSM electrophysiology, peak current response on PIN8 proteoliposomes; assay type: biochemical; conditions: 100 μM 2,4-D, 20 µM NPA
T4 construct: made in house
T4 sequence (Q9LFP6 1-367): T1 sequence (Q9LFP6 1-367)
Protocol: as §1

[2] = Peak current, sheet F2A (Fig. 2a, KD of substrate binding), individual sensors
[3] = read-out: Rel. Inhibition of NPA peak currents, 50 µM substrate, 100 µM NPA, individual sensors
[4] = read-out: Rel. Inhibition of NPA peak currents, 100 µM substrate, 100 µM NPA, individual sensors
[5] = read-out: Rel. Inhibition of NPA peak currents, 250 µM substrate, 100 µM NPA, individual sensors
[6] = read-out: Rel. Inhibition of NPA peak currents, 500 µM substrate, 100 µM NPA, individual sensors
[7] = read-out: Rel. Inhibition of NPA peak currents, 1000 µM substrate, 100 µM NPA, individual sensors
[8] = sheet F2A (Fig. 2a, KD of substrate binding), individual sensors, read-out: Peak current
[9] = 20 µM substrate, 100 µM NPA, individual sensors, read-out: Rel. Inhibition of NPA peak currents
[10] = 50 µM substrate, 100 µM NPA, individual sensors, read-out: Rel. Inhibition of NPA peak currents
[11] = 100 µM substrate, 100 µM NPA, individual sensors, read-out: Rel. Inhibition of NPA peak currents
[12] = 250 µM substrate, 100 µM NPA, individual sensors, read-out: Rel. Inhibition of NPA peak currents
[13] = 500 µM substrate, 100 µM NPA, individual sensors, read-out: Rel. Inhibition of NPA peak currents
[14] = 1000 µM substrate, 100 µM NPA, individual sensors, read-out: Rel. Inhibition of NPA peak currents

T3 sequence (Q9LFP6 whole entry N223A): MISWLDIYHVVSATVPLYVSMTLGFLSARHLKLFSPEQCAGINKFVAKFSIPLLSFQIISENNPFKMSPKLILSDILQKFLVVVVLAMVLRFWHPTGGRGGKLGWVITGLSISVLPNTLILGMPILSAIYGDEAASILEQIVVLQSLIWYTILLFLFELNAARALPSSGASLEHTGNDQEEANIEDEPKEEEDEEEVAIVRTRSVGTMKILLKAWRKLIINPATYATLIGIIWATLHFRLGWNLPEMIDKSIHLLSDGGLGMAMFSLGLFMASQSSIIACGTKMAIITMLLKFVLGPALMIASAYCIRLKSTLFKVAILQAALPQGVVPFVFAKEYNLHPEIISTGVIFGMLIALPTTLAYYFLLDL

| Structure (SMILES) | binding affinity to PIN8 in words (PIN8) | Kd (PIN8; [2]) | inhibition at 250 µM (PIN8; [5]) [%] | inhibition at 500 µM (PIN8; [6]) [%] | inhibition at 1000 µM (PIN8; [7]) [%] | Kd (PIN8; [8]) | inhibition at 20 µM (PIN8; [9]) [%] | inhibition at 50 µM (PIN8; [10]) [%] | inhibition at 100 µM (PIN8; [11]) [%] | inhibition at 250 µM (PIN8; [12]) [%] | inhibition at 500 µM (PIN8; [13]) [%] | inhibition at 1000 µM (PIN8; [14]) [%] | Rel. FWHM (% of LPR10) ([1]; LPR10) | Rel. FWHM (% of LPR10) ([1]; LPR50) | also measured |
| --- | --- | --- | --- | --- | --- | --- | --- | --- | --- | --- | --- | --- | --- | --- | --- |
| O=C(O)COc1cc(Cl)c(Cl)cc1Cl [2,4,5-T, 2,4,5-trichlorophenoxyacetic acid] | highest affinity | 9.28 µM | 91 | 95.3 | 98.4 | 8.98 µM | – | – | – | – | – | – | – | – | inhibition at 1 µM (PIN8; read-out: Rel. Inhibition of NPA peak currents, 1 µM substrate, 100 µM NPA, individual sensors): 11.8%; inhibition at 5 µM (PIN8; read-out: Rel. Inhibition of NPA peak currents, 5 µM substrate, 100 µM NPA, individual sensors): 35.9%; inhibition at 20 µM (PIN8; read-out: Rel. Inhibition of NPA peak currents, 20 µM substrate, 100 µM NPA, individual sensors): 65.7%; inhibition at 50 µM (PIN8; [3]): 78.2%; inhibition at 100 µM (PIN8; [4]): 87.3% |
| Cc1ccc(OCC(=O)O)c(C)c1 [2,4-DMPA, 2-(2,4-dimethylphenoxy)acetic acid] | – | – | – | – | – | 205 µM and 139 µM and 178 µM | 9.25 | 21.8 | 37 | 61.3 | 78.8 | 92.8 | – | – | Kd (PIN8; inhibition of peak current elicited by 100 µM NPA, read-out: KD of substrate binding by PIN8): 174 ± 33 µM |
| O=C(O)CCc1ccc(Cl)cc1Cl [2,4-DPP, 3-(2,4-dichlorophenyl)-propionic acid] | higher affinity than 2,4-D | – | – | – | – | 18.1 µM and 22.4 µM and 23.3 µM | 37.2 | 51.9 | 63.6 | 77.8 | 77.9 | – | – | – | inhibition at 5 µM (PIN8; 5 µM substrate, 100 µM NPA, individual sensors, read-out: Rel. Inhibition of NPA peak currents): 15.1% |
| O=C(O)COc1ccc(Cl)cc1Cl [2,4D] | – | – | – | – | – | – | – | – | – | – | – | – | 1.043 % of LPR10 (2×) and 0.913 % of LPR10 | 1.565 % of LPR10 and 1.304 % of LPR10 and 1.239 % of LPR10 and 1.63 % of LPR10 | – |
| O=C(O)COc1ccccc1Cl [2-CPA, 2-chlorophenoxyacetic acid] | high affinity, comparable to that of IAA and 2,4-D | – | – | – | – | 106 µM and 112 µM and 101 µM | 19.9 | 33.3 | 57 | – | 94.3 | 99.8 | 0.9412 % of LPR10 and 1.059 % of LPR10 and 1 % of LPR10 | 1.824 % of LPR10 (2×) and 1.235 % of LPR10 and 1.647 % of LPR10 | Imax (PIN8 N223A): 3 ± 0.1 nA and 2.6 ± 0.1 nA; EC50 (PIN8 N223A; No transport = model could not be fit, read-out: EC50 of peak current response): 263 µM |
| Cc1ccccc1OCC(=O)O [2-MPA, 2-methylphenoxyacetic acid] | – | – | – | – | – | 284 µM and 209 µM and 256 µM | – | 13 | 27.5 | 53.9 | 74.7 | 82.9 | – | – | – |
| Cc1ccc(OCC(=O)O)cc1 [4-MPA, 4-methylphenoxyacetic acid] | – | – | – | – | – | 710 µM and 614 µM and 521 µM | – | – | 12.1 | 25.7 | 40.8 | 58.3 | – | – | inhibition at 2000 µM (PIN8; 2000 µM substrate, 100 µM NPA, individual sensors, read-out: Rel. Inhibition of NPA peak currents): 72.8% |
| Cc1cc(Cl)ccc1OCC(=O)O [MCPA, 2-methyl-4-chlorophenoxyacetic acid] | intermediate affinity | 149 µM and 159 µM and 103 µM | 65.4 | 78.3 | 88.6 | – | – | – | – | – | – | – | – | – | inhibition at 50 µM (PIN8; [3]): 25.1%; inhibition at 100 µM (PIN8; [4]): 41.7% |
| O=C(O)c1ccccc1C(=O)Nc1cccc2ccccc12 [NPA, 1-N-naphthylphthalamic acid] | – | – | – | – | – | – | – | – | – | – | – | – | 0.9324 % of LPR10 and 1.054 % of LPR10 and 1.014 % of LPR10 | 0.6892 % of LPR10 and 0.7297 % of LPR10 and 0.7703 % of LPR10 | peak width of SSM-based current response as a function of lipid-to-protein ratio (LPR) ([1]; LPR10 versus LPR50): does not change with LPR; effect on the PIN8 current response to 2,4-D (A. thaliana PIN8): inhibited |
| O=C(O)COc1ccccc1 [PA, phenoxyacetic acid] | – | 605 µM and 377 µM | 30.3 | 47.3 | 60.5 | 485 µM | – | – | – | – | – | – | – | – | – |
